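Exposure lasted 48 hours, with cells grown in 96-well plates and compounds tested at five concentrations. The concentration for full growth arrest is given as TGI.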
Columns and labels:
Experiment in all cases: growth of human tumour cells (NCI), 48 h
COLO 205 colon = system: COLO 205 colon
SR leukemia = system: SR leukemia
HCT-116 colon = system: HCT-116 colon
ACHN renal = system: ACHN renal
NCI-H23 lung = system: NCI-H23 lung
T-47D breast = system: T-47D breast
RPMI-8226 leukemia = system: RPMI-8226 leukemia
786-0 renal = system: 786-0 renal
U251 CNS = system: U251 CNS
BT-549 breast = system: BT-549 breast
SNB-75 CNS = system: SNB-75 CNS
SF-539 CNS = system: SF-539 CNS
UO-31 renal = system: UO-31 renal
NCI-H226 lung = system: NCI-H226 lung
HL-60(TB) leukemia = system: HL-60(TB) leukemia
SF-268 CNS = system: SF-268 CNS
SK-MEL-2 melanoma = system: SK-MEL-2 melanoma
OVCAR-5 ovarian = system: OVCAR-5 ovarian
EKVX NSCLC = system: EKVX NSCLC
HOP-62 NSCLC = system: HOP-62 NSCLC
OVCAR-4 ovarian = system: OVCAR-4 ovarian
MDA-N = system: MDA-N
K-562 leukemia = system: K-562 leukemia
CCRF-CEM leukemia = system: CCRF-CEM leukemia
NCI-H460 lung = system: NCI-H460 lung
SF-295 CNS = system: SF-295 CNS
HCT-15 colon = system: HCT-15 colon
KM12 colon = system: KM12 colon
UACC-62 melanoma = system: UACC-62 melanoma
MCF7 breast = system: MCF7 breast
PC-3 prostate = system: PC-3 prostate
MOLT-4 leukemia = system: MOLT-4 leukemia
OVCAR-8 ovarian = system: OVCAR-8 ovarian
HS 578T breast = system: HS 578T breast
NCI/ADR-RES ovarian = system: NCI/ADR-RES ovarian
MDA-MB-231 breast = system: MDA-MB-231 breast
IGROV1 ovarian = system: IGROV1 ovarian
UACC-257 melanoma = system: UACC-257 melanoma
HCC-2998 colon = system: HCC-2998 colon
SW-620 colon = system: SW-620 colon
DU-145 prostate = system: DU-145 prostate
TK-10 renal = system: TK-10 renal
SK-MEL-5 melanoma = system: SK-MEL-5 melanoma
SNB-19 CNS = system: SNB-19 CNS
OVCAR-3 ovarian = system: OVCAR-3 ovarian
MDA-MB-435 = system: MDA-MB-435
A498 renal = system: A498 renal
CAKI-1 renal = system: CAKI-1 renal
M14 melanoma = system: M14 melanoma
NCI-H522 lung = system: NCI-H522 lung
SN12C renal = system: SN12C renal
SK-MEL-28 melanoma = system: SK-MEL-28 melanoma
SK-OV-3 ovarian = system: SK-OV-3 ovarian
A549 NSCLC = system: A549 NSCLC
HOP-92 NSCLC = system: HOP-92 NSCLC
LOX IMVI melanoma = system: LOX IMVI melanoma
HT29 colon = system: HT29 colon
MALME-3M melanoma = system: MALME-3M melanoma
RXF 393 renal = system: RXF 393 renal

Measured: TGI

Cc1coc2c1CC1OC1(C)CCC1OC1(C)C2 (configuration not stated)
> 100 µM: COLO 205 colon | SR leukemia | HCT-116 colon | ACHN renal | NCI-H23 lung | T-47D breast | RPMI-8226 leukemia | 786-0 renal | U251 CNS | BT-549 breast | SNB-75 CNS | SF-539 CNS | UO-31 renal | NCI-H226 lung | HL-60(TB) leukemia | SF-268 CNS | SK-MEL-2 melanoma | OVCAR-5 ovarian | EKVX NSCLC | HOP-62 NSCLC | OVCAR-4 ovarian | MDA-N | K-562 leukemia | CCRF-CEM leukemia | NCI-H460 lung | SF-295 CNS | HCT-15 colon | KM12 colon | UACC-62 melanoma | MCF7 breast | PC-3 prostate | MOLT-4 leukemia | OVCAR-8 ovarian | HS 578T breast | NCI/ADR-RES ovarian | MDA-MB-231 breast | IGROV1 ovarian | UACC-257 melanoma | HCC-2998 colon | SW-620 colon | DU-145 prostate | TK-10 renal | SK-MEL-5 melanoma | SNB-19 CNS | OVCAR-3 ovarian | MDA-MB-435 | A498 renal | CAKI-1 renal | M14 melanoma | NCI-H522 lung | SN12C renal | SK-MEL-28 melanoma | SK-OV-3 ovarian | A549 NSCLC | HOP-92 NSCLC | LOX IMVI melanoma

COC(=O)C1=C([C@H]2COC(C)(C)O2)[C@H]2C[C@@H]1[C@@H]1OC(C)(C)O[C@@H]12
> 100 µM: COLO 205 colon | SR leukemia | HCT-116 colon | ACHN renal | NCI-H23 lung | T-47D breast | RPMI-8226 leukemia | 786-0 renal | U251 CNS | BT-549 breast | SNB-75 CNS | SF-539 CNS | UO-31 renal | NCI-H226 lung | HL-60(TB) leukemia | SF-268 CNS | SK-MEL-2 melanoma | OVCAR-5 ovarian | EKVX NSCLC | HOP-62 NSCLC | OVCAR-4 ovarian | HT29 colon | MDA-N | K-562 leukemia | CCRF-CEM leukemia | NCI-H460 lung | SF-295 CNS | HCT-15 colon | KM12 colon | UACC-62 melanoma | MCF7 breast | PC-3 prostate | MOLT-4 leukemia | MALME-3M melanoma | OVCAR-8 ovarian | HS 578T breast | NCI/ADR-RES ovarian | RXF 393 renal | MDA-MB-231 breast | IGROV1 ovarian | UACC-257 melanoma | HCC-2998 colon | SW-620 colon | DU-145 prostate | TK-10 renal | SK-MEL-5 melanoma | SNB-19 CNS | OVCAR-3 ovarian | MDA-MB-435 | A498 renal | M14 melanoma | NCI-H522 lung | SN12C renal | SK-MEL-28 melanoma | SK-OV-3 ovarian | A549 NSCLC | HOP-92 NSCLC | LOX IMVI melanoma

CC1=C(C(=O)NNC(=O)C(N)=O)CC(C(=O)NNC(=O)C(N)=O)=C(C)N1
> 100 µM: COLO 205 colon | SR leukemia | HCT-116 colon | ACHN renal | NCI-H23 lung | T-47D breast | RPMI-8226 leukemia | 786-0 renal | U251 CNS | BT-549 breast | SNB-75 CNS | SF-539 CNS | UO-31 renal | NCI-H226 lung | HL-60(TB) leukemia | SF-268 CNS | SK-MEL-2 melanoma | OVCAR-5 ovarian | EKVX NSCLC | HOP-62 NSCLC | OVCAR-4 ovarian | HT29 colon | MDA-N | K-562 leukemia | CCRF-CEM leukemia | NCI-H460 lung | SF-295 CNS | HCT-15 colon | KM12 colon | UACC-62 melanoma | MCF7 breast | PC-3 prostate | MOLT-4 leukemia | OVCAR-8 ovarian | HS 578T breast | NCI/ADR-RES ovarian | RXF 393 renal | MDA-MB-231 breast | IGROV1 ovarian | UACC-257 melanoma | HCC-2998 colon | SW-620 colon | DU-145 prostate | TK-10 renal | SK-MEL-5 melanoma | SNB-19 CNS | OVCAR-3 ovarian | MDA-MB-435 | A498 renal | CAKI-1 renal | M14 melanoma | NCI-H522 lung | SN12C renal | SK-MEL-28 melanoma | SK-OV-3 ovarian | A549 NSCLC | HOP-92 NSCLC | LOX IMVI melanoma
